{"source": "patent US20220031800A1", "about": "“PEPTIDES FOR TREATING NON-EXUDATIVE MACULAR DEGENERATION AND OTHER DISORDERS OF THE EYE” (Allegro Pharmaceuticals, LLC, priority 2019, published 2022)", "system": "study eye of subjects with intermediate non-exudative AMD", "assay": "SD-OCT Analysis 1 (thickness and volume of retinal layers, EZ defect area, GA)", "assay_type": "in vivo, human", "conditions": "baseline to Week 32", "procedure": "Numerous study assessments were conducted at various time points throughout the study. Included among these study assessments were; refractive eye examinations, determinations of BCVA AND low-luminance BCVA, Lanthony D-15 color vision test, measurement of intraocular pressure (IOP), Indirect ophthalmoscopy/dilated fundus examinations and spectral-domain optical coherence tomography (SD-OCT). Also, blood and saliva samples were obtained from each subject for genetic analysis. The above-listed study assessments were performed at the time points indicated in Table 1, below: The OCT scans were analyzed by two (2) unrelated experts. The mean thickness and mean volume of retinal subfields and layer segments were analyzed at screening (pre-treatment) and at Week 12 for Group 1 subjects and at Week 32 for Group 2 subjects. In addition to the quantitative analysis of OCT images, a qualitative assessment of the OCT images at baseline (pre-treatment) was performed to identify GA anywhere in the retina, in the fovea (1-mm central subfield), and in the foveal center. Quantitative analysis of the OCT images was also performed to measure changes in anatomical measurements over time.", "note": "Square brackets hold non-standard residues; d marks the D form. Peptide text beside a SMILES is read from it. Cya = N[C@@H](CS(=O)(=O)O)C(=O)O", "data": [{"smiles": "C[C@@H](O)[C@H](NC(=O)[C@H](CS(=O)(=O)O)NC(=O)CNC(=O)[C@H](CCCNC(=N)N)NC(=O)CN)C(=O)N1CCC[C@H]1C(=O)O", "note": "[risuteganib, Glycyl-L-arginylglycyl-3-sulfo-L-alanyl-L-threonyl-L-proline] (H-GRG[Cya]TP-OH)", "values": [{"measurement": "Change in EZ defect area", "setting": "nonresponder eyes n = 12", "result": 0.014, "unit": "mm^2"}, {"measurement": "Mean change in mean thickness: Inner retina, central subfield", "setting": "nonresponder eyes n = 12", "result": "−2.250", "unit": "μm"}, {"measurement": "Mean change in mean thickness: Inner retina, foveal center", "setting": "nonresponder eyes n = 12", "result": 9.917, "unit": "μm"}, {"measurement": "Mean change in mean thickness: Outer retina, central subfield", "setting": "nonresponder eyes n = 12", "result": "−5.417", "unit": "μm"}, {"measurement": "Mean change in mean thickness: Outer retina, foveal center", "setting": "nonresponder eyes n = 12", "result": "−17.833", "unit": "μm"}, {"measurement": "Mean change in mean thickness: Photoreceptor, central subfield", "setting": "nonresponder eyes n = 12", "result": "−1.333", "unit": "μm"}, {"measurement": "Mean change in mean thickness: Photoreceptor, foveal center", "setting": "nonresponder eyes n = 12", "result": 3.833, "unit": "μm"}, {"measurement": "Mean change in mean thickness: RPEDC, central subfield", "setting": "nonresponder eyes n = 12", "result": 1.083, "unit": "μm"}, {"measurement": "Mean change in mean thickness: RPEDC, foveal center", "setting": "nonresponder eyes n = 12", "result": "−2.250", "unit": "μm"}, {"measurement": "Mean change in total volume: Inner retina, central subfield", "setting": "nonresponder eyes n = 12", "result": "−0.002", "unit": "mm^3"}, {"measurement": "Mean change in total volume: Outer retina, central subfield", "setting": "nonresponder eyes n = 12", "result": "−0.004", "unit": "mm^3"}, {"measurement": "Mean change in total volume: Photoreceptor, central subfield", "setting": "nonresponder eyes n = 12", "result": "−0.001", "unit": "mm^3"}, {"measurement": "Mean change in total volume: RPEDC, central subfield", "setting": "nonresponder eyes n = 12", "result": 0.001, "unit": "mm^3"}, {"measurement": "Change in EZ defect area", "setting": "responder eyes n = 10", "result": 0.020, "unit": "mm^2"}, {"measurement": "Mean change in mean thickness: Inner retina, central subfield", "setting": "responder eyes n = 10", "result": 5.200, "unit": "μm"}, {"measurement": "Mean change in mean thickness: Inner retina, foveal center", "setting": "responder eyes n = 10", "result": 8.400, "unit": "μm"}, {"measurement": "Mean change in mean thickness: Outer retina, central subfield", "setting": "responder eyes n = 10", "result": "−2.400", "unit": "μm"}, {"measurement": "Mean change in mean thickness: Outer retina, foveal center", "setting": "responder eyes n = 10", "result": "−8.000", "unit": "μm"}, {"measurement": "Mean change in mean thickness: Photoreceptor, central subfield", "setting": "responder eyes n = 10", "result": "−1.000", "unit": "μm"}, {"measurement": "Mean change in mean thickness: Photoreceptor, foveal center", "setting": "responder eyes n = 10", "result": 3.100, "unit": "μm"}, {"measurement": "Mean change in mean thickness: RPEDC, central subfield", "setting": "responder eyes n = 10", "result": "−9.800", "unit": "μm"}, {"measurement": "Mean change in mean thickness: RPEDC, foveal center", "setting": "responder eyes n = 10", "result": "−8.100", "unit": "μm"}, {"measurement": "Mean change in total volume: Inner retina, central subfield", "setting": "responder eyes n = 10", "result": 0.004, "unit": "mm^3"}, {"measurement": "Mean change in total volume: Outer retina, central subfield", "setting": "responder eyes n = 10", "result": "−0.002", "unit": "mm^3"}, {"measurement": "Mean change in total volume: Photoreceptor, central subfield", "setting": "responder eyes n = 10", "result": "−0.001", "unit": "mm^3"}, {"measurement": "Mean change in total volume: RPEDC, central subfield", "setting": "responder eyes n = 10", "result": "−0.008", "unit": "mm^3"}, {"measurement": "Change in EZ defect area, Difference", "setting": "responder vs nonresponder eyes", "result": 0.006, "unit": "mm^2"}, {"measurement": "Mean change in mean thickness: Inner retina, central subfield, Difference", "setting": "responder vs nonresponder eyes", "result": 7.450, "unit": "μm"}, {"measurement": "Mean change in mean thickness: Inner retina, foveal center, Difference", "setting": "responder vs nonresponder eyes", "result": "−1.517", "unit": "μm"}, {"measurement": "Mean change in mean thickness: Outer retina, central subfield, Difference", "setting": "responder vs nonresponder eyes", "result": 3.017, "unit": "μm"}, {"measurement": "Mean change in mean thickness: Outer retina, foveal center, Difference", "setting": "responder vs nonresponder eyes", "result": 9.833, "unit": "μm"}, {"measurement": "Mean change in mean thickness: Photoreceptor, central subfield, Difference", "setting": "responder vs nonresponder eyes", "result": 0.333, "unit": "μm"}, {"measurement": "Mean change in mean thickness: Photoreceptor, foveal center, Difference", "setting": "responder vs nonresponder eyes", "result": "−0.733", "unit": "μm"}, {"measurement": "Mean change in mean thickness: RPEDC, central subfield, Difference", "setting": "responder vs nonresponder eyes", "result": "−10.883", "unit": "μm"}, {"measurement": "Mean change in mean thickness: RPEDC, foveal center, Difference", "setting": "responder vs nonresponder eyes", "result": "−5.850", "unit": "μm"}, {"measurement": "Mean change in total volume: Inner retina, central subfield, Difference", "setting": "responder vs nonresponder eyes", "result": 0.006, "unit": "mm^3"}, {"measurement": "Mean change in total volume: Outer retina, central subfield, Difference", "setting": "responder vs nonresponder eyes", "result": 0.003, "unit": "mm^3"}, {"measurement": "Mean change in total volume: Photoreceptor, central subfield, Difference", "setting": "responder vs nonresponder eyes", "result": 0.000, "unit": "mm^3"}, {"measurement": "Mean change in total volume: RPEDC, central subfield, Difference", "setting": "responder vs nonresponder eyes", "result": "−0.009", "unit": "mm^3"}, {"measurement": "Change in EZ defect area", "setting": "risuteganib arm n = 22", "result": 0.015, "unit": "mm^2"}, {"measurement": "Mean change in mean thickness: Inner retina, central subfield", "setting": "risuteganib arm n = 22", "result": 1.565, "unit": "μm"}, {"measurement": "Mean change in mean thickness: Inner retina, foveal center", "setting": "risuteganib arm n = 22", "result": 6.696, "unit": "μm"}, {"measurement": "Mean change in mean thickness: Inner retina, inferior subfield", "setting": "risuteganib arm n = 22", "result": "−0.065", "unit": "μm"}, {"measurement": "Mean change in mean thickness: Inner retina, nasal subfield", "setting": "risuteganib arm n = 22", "result": "−0.783", "unit": "μm"}, {"measurement": "Mean change in mean thickness: Inner retina, superior subfield", "setting": "risuteganib arm n = 22", "result": "−3.022", "unit": "μm"}, {"measurement": "Mean change in mean thickness: Inner retina, temporal subfield", "setting": "risuteganib arm n = 22", "result": 0.217, "unit": "μm"}, {"measurement": "Mean change in mean thickness: Outer retina, central subfield", "setting": "risuteganib arm n = 22", "result": "−3.978", "unit": "μm"}, {"measurement": "Mean change in mean thickness: Outer retina, foveal center", "setting": "risuteganib arm n = 22", "result": "−9.543", "unit": "μm"}, {"measurement": "Mean change in mean thickness: Outer retina, inferior subfield", "setting": "risuteganib arm n = 22", "result": "−2.457", "unit": "μm"}, {"measurement": "Mean change in mean thickness: Outer retina, nasal subfield", "setting": "risuteganib arm n = 22", "result": "−1.196", "unit": "μm"}, {"measurement": "Mean change in mean thickness: Outer retina, superior subfield", "setting": "risuteganib arm n = 22", "result": "−0.065", "unit": "μm"}, {"measurement": "Mean change in mean thickness: Outer retina, temporal subfield", "setting": "risuteganib arm n = 22", "result": "−2.283", "unit": "μm"}, {"measurement": "Mean change in mean thickness: Photoreceptor, central subfield", "setting": "risuteganib arm n = 22", "result": "−1.087", "unit": "μm"}, {"measurement": "Mean change in mean thickness: Photoreceptor, foveal center", "setting": "risuteganib arm n = 22", "result": 1.717, "unit": "μm"}, {"measurement": "Mean change in mean thickness: Photoreceptor, inferior subfield", "setting": "risuteganib arm n = 22", "result": "−0.239", "unit": "μm"}, {"measurement": "Mean change in mean thickness: Photoreceptor, nasal subfield", "setting": "risuteganib arm n = 22", "result": "−0.087", "unit": "μm"}, {"measurement": "Mean change in mean thickness: Photoreceptor, superior subfield", "setting": "risuteganib arm n = 22", "result": 0.130, "unit": "μm"}, {"measurement": "Mean change in mean thickness: Photoreceptor, temporal subfield", "setting": "risuteganib arm n = 22", "result": "−0.152", "unit": "μm"}, {"measurement": "Mean change in mean thickness: RPEDC, central subfield", "setting": "risuteganib arm n = 22", "result": "−1.500", "unit": "μm"}, {"measurement": "Mean change in mean thickness: RPEDC, foveal center", "setting": "risuteganib arm n = 22", "result": "−1.652", "unit": "μm"}, {"measurement": "Mean change in mean thickness: RPEDC, inferior subfield", "setting": "risuteganib arm n = 22", "result": 0.457, "unit": "μm"}, {"measurement": "Mean change in mean thickness: RPEDC, nasal subfield", "setting": "risuteganib arm n = 22", "result": 0.739, "unit": "μm"}, {"measurement": "Mean change in mean thickness: RPEDC, superior subfield", "setting": "risuteganib arm n = 22", "result": 1.739, "unit": "μm"}, {"measurement": "Mean change in mean thickness: RPEDC, temporal subfield", "setting": "risuteganib arm n = 22", "result": 0.870, "unit": "μm"}, {"measurement": "Mean change in total volume: Inner retina, central subfield", "setting": "risuteganib arm n = 22", "result": 0.001, "unit": "mm^3"}]}]}
